# Data reported in ChEMBL document CHEMBL1136671, “Amino propynyl benzoic acid building block in rigid spacers of divalent ligands binding to the Syk SH2 domains with equally high affinity as the natural ligand” (Bioorg Med Chem Lett, 2003).
# pIC50, pKd: −log10 of the molar value. Numbered stars: 1 amine (or outer) side, 2 acyl side, 3 side chain; on linkers, the order of the positions; unused ones are H or OH. Square brackets hold non-standard residues; d marks the D form. Peptide text beside a SMILES is read from it. NH(CH2CH2O)6CH2CO = O=C(COCCOCCOCCOCCOCCOCCN[*:1])[*:2]; pY = N[C@@H](Cc1ccc(OP(=O)(O)O)cc1)C(=O)O; X1 = O=C(c1ccc(C#CCN[*:1])cc1)[*:2]
# Key:
# [1] = target: T1, Tyrosine-protein kinase SYK (Homo sapiens, UniProt P43405); test: Dissociation binding constant for Syk tandem SH2 domain
# [2] = target: T1, Tyrosine-protein kinase SYK; test: Binding affinity for Syk tandem SH2 domain in surface plasmon resonance assay (SPR)
Compound,pKd [1],pIC50 [2]
CC(=O)N[C@@H](Cc1ccc(OP(=O)(O)O)cc1)C(=O)N[C@@H](CCC(=O)O)C(=O)N[C@H](C(=O)N[C@@H](CC(C)C)C(N)=O)[C@@H](C)O (Ac-[pY]ETL-NH2),3.78,3.24
CC(=O)N[C@@H](Cc1ccc(OP(=O)(O)O)cc1)C(=O)N[C@H](C(=O)NCC(=O)N[C@@H](CC(C)C)C(=O)N[C@@H](CC(N)=O)C(=O)N[C@H](C(=O)N[C@@H](CCCN=C(N)N)C(=O)N[C@@H](CO)C(=O)N[C@@H](CCC(N)=O)C(=O)N[C@@H](CCC(=O)O)C(=O)N[C@H](C(=O)N[C@@H](Cc1ccc(OP(=O)(O)O)cc1)C(=O)N[C@@H](CCC(=O)O)C(=O)N[C@H](C(=O)N[C@@H](CC(C)C)C(N)=O)[C@@H](C)O)[C@@H](C)O)[C@@H](C)O)[C@@H](C)O (Ac-[pY]TGLNTRSQET[pY]ETL-NH2),7.43,6.89

# Results, then the compound that gave them:
pKd [1],pIC50 [2],Compound
6.47,5.92,CC(=O)N[C@@H](Cc1ccc(OP(=O)(O)O)cc1)C(=O)N[C@H](C(=O)NCC(=O)N[C@@H](CC(C)C)C(=O)NCCOCCOCCOCCOCCOCCOCC(=O)N[C@@H](Cc1ccc(OP(=O)(O)O)cc1)C(=O)N[C@@H](CCC(=O)O)C(=O)N[C@H](C(=O)N[C@@H](CC(C)C)C(N)=O)[C@@H](C)O)[C@@H](C)O (Ac-[pY]TGL[NH(CH2CH2O)6CH2CO][pY]ETL-NH2)
7.54,7.00,CC(=O)N[C@@H](Cc1ccc(OP(=O)(O)O)cc1)C(=O)N[C@H](C(=O)NCC(=O)N[C@@H](CC(C)C)C(=O)NCC#Cc1ccc(C(=O)NCC#Cc2ccc(C(=O)N[C@@H](Cc3ccc(OP(=O)(O)O)cc3)C(=O)N[C@@H](CCC(=O)O)C(=O)N[C@H](C(=O)N[C@@H](CC(C)C)C(N)=O)[C@@H](C)O)cc2)cc1)[C@@H](C)O (Ac-[pY]TGL[X1][X1][pY]ETL-NH2)
5.40,4.21,CC(=O)N[C@@H](Cc1ccc(OP(=O)(O)O)cc1)C(=O)N[C@H](C(=O)NCC(=O)N[C@@H](CC(C)C)C(=O)NCC(=O)NCC#Cc1ccc(C(=O)NCC(=O)N[C@@H](Cc2ccc(OP(=O)(O)O)cc2)C(=O)N[C@@H](CCC(=O)O)C(=O)N[C@H](C(=O)N[C@@H](CC(C)C)C(N)=O)[C@@H](C)O)cc1)[C@@H](C)O (Ac-[pY]TGLG[X1]G[pY]ETL-NH2)
